Experimental data published in EP0063525A1, “Dibenzazepine tetracyclic derivatives, process for their preparation and pharmaceutical compositions containing them” (CENTRE NATIONAL DE LA RECHERCHE SCIENTIFIQUE (CNRS), priority 1981, dated 1982).
Like-named read-outs stand apart in the source and are kept apart here.

Assays:
souris femelles = assay: acute toxicity in the mouse, intraperitoneal; assay type: in vivo; settings: voie intrapéritonéale, dead mice of the group
Description: (§1) Les produits ont été administrés par voie intrapéritonéale à des souris femelles dont le poids variait de 18 à 30 g.
(§2) Les animaux injectés ont été maintenus dans une salle thermostatée, nourris et abreuvés à volonté.
(§3) La mortalité a été relevée à 1 heure, 4 heures, 24 heures et 48 heures.

[1] = acute toxicity in the mouse, intraperitoneal; assay type: in vivo, Souris; settings: mouse, in vivo, ip, voie intrapéritonéale; for mortality at 48 h: read-out: Mortalité %
Description: as §1, §2, §3

Souris [2] = assay: tetrabenazine hypothermia; assay type: in vivo; settings: product i.p. 25 mg/kg 30 min before tétrabénazine 32 mg/kg i.v.
Procedure: (§4) Ce test permet de révéler également une activité antidépressive avec l'avantage d'une lecture plus rapide qu'avec la réserpine.
Les produits sont injectés 30 minutes avant l'administration de tétrabénazine.
Les températures sont relevées aux temps : 0, 30 minutes, 60 minutes, 90 minutes et 120 minutes.
(§5) Les souris sont réparties par lots de 5.
Les températures sont relevées avant l'injection de tétrabénazine, 30 minutes, 60 minutes, 90 minutes et 120 minutes après.
(§6) Le lot témoin comprend 20 souris.

Souris [3] = assay: antireserpine activity: reserpine hypothermia; assay type: in vivo; settings: réserpine 5 mg/kg i.p. 17 h before, product i.p. 25 mg/kg
Outline: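 Mice in groups of 4 given reserpine 5 mg/kg i.p.; 17 hours later rectal temperature taken by thermocouple and test substance or solvent given i.p. Temperature measured hourly for 4 hours. Reported as mean temperature changes at 1, 2, 3 and 4 hours, their 4-hour sum, and percent rise versus solvent controls.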

Souris [4] = assay: tetrabenazine ptosis; assay type: in vivo; settings: product i.p. 25 mg/kg 30 min before tétrabénazine 32 mg/kg i.v.
Procedure: as §4, §5
Le ptosis est noté avant l'injection de tétrabénazine, 30 minutes, 60 minutes, 90 minutes et 120 minutes après.
On a adopté la notation suivante : • - 0 : pour un oeil ouvert, • - 1 : pour un oeil fermé au quart, • - 2 : pour un oeil fermé à moitié, • - 3 : pour un oeil fermé aux trois-quarts, • - 4 : pour un oeil fermé complètement.
as §6

chiens anesthésiés = assay: cardiovascular toxicity in the anaesthetised dog, slow perfusion; assay type: in vivo, Chien; settings: chiens anesthésiés, perfusion lente
Procedure: L'étude du composé 2 a été effectuée sur 7 chiens anesthésiés à des doses allant de 4 à 20 mg/kg en perfusion lente.

SMILES: CC(CN(C)C)CN1c2ccccc2C=Cc2ccccc21 (stereo not drawn) [compound 22, (méthyl-2 diméthylamino-3 propyl)-5 dibenzo [b,f] 5H azépine, reference compound]
- Mortalité en 1 heure (souris femelles; 25 mg/kg): 0
- Mortalité en 48 heures (souris femelles; 25 mg/kg): 0
- Mortalité en 1 heure (souris femelles; 50 mg/kg): 0
- Mortalité en 48 h. (souris femelles; 50 mg/kg): 1
- Mortalité en 1 heure (souris femelles; 100 mg/kg): 4
- Mortalité en 48 h. (souris femelles; 100 mg/kg): 5
- LD50 at 48 h ([1]; souris femelles, read-out: DL 50): 75 mg/kg
- mortality at 48 h ([1]; 25 mg/kg): 0%
- mortality at 48 h ([1]; 50 mg/kg): 20%
- mortality at 48 h ([1]; 100 mg/kg): 100%
- inhibition in vivo at 25 mg/kg (Souris [2]; ip, 2 h, hypothermie, read-out: % de protection): 50%
- Température après tétrabénazine 30 minutes (Souris [2]): -3,5
- Température après tétrabénazine 60 minutes (Souris [2]): -0,1
- Température après tétrabénazine 90 minutes (Souris [2]): -0,6
- Température après tétrabénazine 120 minutes (Souris [2]): -0,1
- Température après tétrabénazine Total (Souris [2]): -4,3
- change in vivo at 25 mg/kg (Souris [3]; ip, 4 h, read-out: % d'augmentation par rapport aux témoins): 85%
- variation de température T= 2h (Souris [3]): +0,5
- variation de température T=3h (Souris [3]): +1
- variation de température T=4h (Souris [3]): +0,4
- inhibition in vivo at 25 mg/kg (Souris [4]; ip, 2 h, ptosis, read-out: % de protection): 11%
- Ptosis Total (Souris [4]): 26,8
- Ptosis 30 minutes (Souris [4]; score 0-4 per eye): 5,6
- Ptosis 60 minutes (Souris [4]; score 0-4 per eye): 6,8
- Ptosis 90 minutes (Souris [4]; score 0-4 per eye): 6,8
- Ptosis 120 minutes (Souris [4]; score 0-4 per eye): 7,6

SMILES: CN(C)CCCN1c2ccccc2CCc2ccccc21 [imipramine, reference compound]
- retour vers les valeurs de départ des paramètres enregistrés, dès l'arrêt de l'injection (chiens anesthésiés): n'a pas été constatée
